# Several values for one entry are separate records, joined by “and”; a condition that tells them apart may be missing. Equal entries are not always repeated.
# Assay: phase 1/2 study in relapsed/refractory ITP (NCT03395210), safety
# Conditions: for Time From Initial Treatment to Rescue Use: single patient
# Text: The Safety Population was used for all safety analyses.
# Pre-existing conditions that worsened during a study were reported as AEs.
# Safety was graded per NCI CTCAE, version 4.0.
# [1] = treatment-related TEAE, any grade
# [2] = treatment-related TEAE, grade 1
# [3] = treatment-related TEAE, grade 2
# [4] = treatment-related TEAE, grade 3/4
structure (smiles),measurement,setting,value
"CC(C)(C=C(C#N)C(=O)N1CCC[C@@H](n2nc(-c3ccc(Oc4ccccc4)cc3F)c3c(N)ncnc32)C1)N1CCN(C2COC2)CC1 (mixture of isomers) [rilzabrutinib, (R)-2-[3-[4-amino-3-(2-fluoro-4-phenoxy-phenyl)pyrazolo[3,4-d]pyrimidin-1-yl]piperidine-1-carbonyl]-4-methyl-4-[4-(oxetan-3-yl)piperazin-1-yl]pent-2-enenitrile]",Rescue medication received but discontinued due to unrelated adverse events,in vivo,Two
same,TEAE leading to discontinuation: grade 3 GI hemorrhage,in vivo,1 patient
same,TEAE leading to discontinuation: grade 4 Evans syndrome,in vivo,1 patient
same,TEAE leading to discontinuation: grade 4 thrombocytopenia,in vivo,1 patient
same,TEAE resulting in study drug discontinuation,in vivo,Seven
same,TEAE resulting in study drug discontinuation: administrative and site conditions,in vivo,1 (2%) patients (%)
same,TEAE resulting in study drug discontinuation: gastrointestinal (GI) disorders,in vivo,4 (70%) patients (%)
same,TEAE resulting in study drug discontinuation: lymphatic system disorders,in vivo,2 (40%) patients (%)
same,TEAEs leading to study drug discontinuation reported as serious adverse events,in vivo,Four
same,Use of rescue medication as cause of study discontinuation,in vivo,four
same,serious adverse events leading to discontinuation related to treatment,in vivo,none were related to rilzabrutinib treatment
same,toxicity across all doses,in vivo,only low-grade toxicity across all doses
same,treatment-related discontinuation: grade 1 fatigue,in vivo,1 patient
same,treatment-related discontinuation: grade 2 GI disorders,in vivo,2 patients
same,"infections, thrombotic events, cardiac arrhythmias, liver toxicity, or increased bleeding",limited follow up time,"no evidence of infections, thrombotic events, cardiac arrhythmias, liver toxicity, or increased bleeding"
same,adverse events typically associated with BTK inhibitors,"neutropenia, treatment-related infections, bleeding, thrombotic events, fungal infections, atrial fibrillation",no signs or symptoms of adverse events typically associated with BTK inhibitors
same,related treatment-emergent serious adverse events,open-label Phase 1/2 study in ITP,no related treatment-emergent serious adverse events
same,Time From Initial Treatment to Rescue Use,"200 mg qd, baseline 24 × 10^9/L",Day 36
same,Time From Initial Treatment to Rescue Use,"300 mg bid, baseline 3 × 10^9/L",Day 29
same,Time From Initial Treatment to Rescue Use,"400 mg bid, baseline 18 × 10^9/L",Day 11
same,Abdominal discomfort,[1],1 (2) number of patients (percent)
same,Abdominal distension,[1],4 (7) number of patients (percent)
same,Abdominal pain,[1],2 (3) number of patients (percent)
same,Abnormal dreams,[1],1 (2) number of patients (percent)
same,Akathisia,[1],1 (2) number of patients (percent)
same,Alopecia,[1],— (represents zero events)
same,Anemia,[1],— (represents zero events)
same,Any TEAE,[1],31 (52) number of patients (percent)
same,Arthralgia,[1],— (represents zero events)
same,Arthropod bite,[1],— (represents zero events)
same,Back pain,[1],1 (2) number of patients (percent)
same,Conjunctival hemorrhage,[1],— (represents zero events)
same,Contusion,[1],1 (2) number of patients (percent)
same,Costochondritis,[1],— (represents zero events)
same,Cough,[1],— (represents zero events)
same,Decreased appetite,[1],1 (2) number of patients (percent)
same,Defecation urgency,[1],1 (2) number of patients (percent)
same,Diarrhea,[1],19 (32) number of patients (percent)
same,Dizziness,[1],— (represents zero events)
same,Dyspepsia,[1],1 (2) number of patients (percent)
same,Dyspnea,[1],— (represents zero events)
same,Dyspnea exertional,[1],— (represents zero events)
same,Edema,[1],1 (2) number of patients (percent)
same,Epigastric discomfort,[1],1 (2) number of patients (percent)
same,Epistaxis,[1],— (represents zero events)
same,Erysipelas,[1],1 (2) number of patients (percent)
same,Fatigue,[1],6 (10) number of patients (percent)
same,Frequent bowel movements,[1],1 (2) number of patients (percent)
same,Headache,[1],2 (3) number of patients (percent)
same,Heavy menstrual bleeding,[1],— (represents zero events)
same,Hypoesthesia,[1],1 (2) number of patients (percent)
same,Hypophosphatemia,[1],— (represents zero events)
same,I lot flush,[1],1 (2) number of patients (percent)
same,Ilypokalemia,[1],1 (2) number of patients (percent)
same,Increased white blood cell count,[1],1 (2) number of patients (percent)
same,Maculo-papular rash,[1],1 (2) number of patients (percent)
same,Malaise,[1],1 (2) number of patients (percent)
same,Micturition urgency,[1],1 (2) number of patients (percent)
same,Muscle spasms,[1],1 (2) number of patients (percent)
same,Myalgia,[1],1 (2) number of patients (percent)
same,Nasal congestion,[1],— (represents zero events)
same,Nasopharyngitis,[1],— (represents zero events)
same,Nausea,[1],18 (30) number of patients (percent)
same,Peripheral swelling,[1],— (represents zero events)
same,Petechiae,[1],— (represents zero events)
same,Pruritus,[1],2 (3) number of patients (percent)
same,Purpura,[1],— (represents zero events)
same,Rash,[1],1 (2) number of patients (percent)
same,Thrombocytopena,[1],— (represents zero events)
same,Upper abdominal pain,[1],2 (3) number of patients (percent)
same,Upper respiratory tract infection,[1],— (represents zero events)
same,Urinary tract infection,[1],— (represents zero events)
same,Vomiting,[1],3 (5) number of patients (percent)
same,diarrhea,[1],32%
same,fatigue,[1],10%
same,nausea,[1],30%
same,Abdominal discomfort,[2],1 (2) number of patients (percent)
same,Abdominal distension,[2],4 (7) number of patients (percent)
same,Abdominal pain,[2],— (represents zero events)
same,Abnormal dreams,[2],1 (2) number of patients (percent)
same,Akathisia,[2],1 (2) number of patients (percent)
same,Alopecia,[2],— (represents zero events)
same,Anemia,[2],— (represents zero events)
same,Any TEAE,[2],27 (45) number of patients (percent)
same,Arthralgia,[2],— (represents zero events)
same,Arthropod bite,[2],— (represents zero events)
same,Back pain,[2],— (represents zero events)
same,Conjunctival hemorrhage,[2],— (represents zero events)
same,Contusion,[2],1 (2) number of patients (percent)
same,Costochondritis,[2],— (represents zero events)
same,Cough,[2],— (represents zero events)
same,Decreased appetite,[2],1 (2) number of patients (percent)
same,Defecation urgency,[2],— (represents zero events)
same,Diarrhea,[2],16 (27) number of patients (percent)
same,Dizziness,[2],— (represents zero events)
same,Dyspepsia,[2],1 (2) number of patients (percent)
same,Dyspnea,[2],— (represents zero events)
same,Dyspnea exertional,[2],— (represents zero events)
same,Edema,[2],1 (2) number of patients (percent)
same,Epigastric discomfort,[2],— (represents zero events)
same,Epistaxis,[2],— (represents zero events)
same,Erysipelas,[2],— (represents zero events)
same,Fatigue,[2],5 (8) number of patients (percent)
same,Frequent bowel movements,[2],— (represents zero events)
same,Headache,[2],2 (3) number of patients (percent)
same,Heavy menstrual bleeding,[2],— (represents zero events)
same,Hypoesthesia,[2],— (represents zero events)
same,Hypophosphatemia,[2],— (represents zero events)
same,I lot flush,[2],— (represents zero events)
same,Ilypokalemia,[2],1 (2) number of patients (percent)
same,Increased white blood cell count,[2],— (represents zero events)
same,Maculo-papular rash,[2],1 (2) number of patients (percent)
same,Malaise,[2],1 (2) number of patients (percent)
same,Micturition urgency,[2],1 (2) number of patients (percent)
same,Muscle spasms,[2],1 (2) number of patients (percent)
same,Myalgia,[2],1 (2) number of patients (percent)
same,Nasal congestion,[2],— (represents zero events)
same,Nasopharyngitis,[2],— (represents zero events)
same,Nausea,[2],16 (27) number of patients (percent)
same,Peripheral swelling,[2],— (represents zero events)
same,Petechiae,[2],— (represents zero events)
same,Pruritus,[2],1 (2) number of patients (percent)
same,Purpura,[2],— (represents zero events)
same,Rash,[2],1 (2) number of patients (percent)
same,Thrombocytopena,[2],— (represents zero events)
same,Upper abdominal pain,[2],1 (2) number of patients (percent)
same,Upper respiratory tract infection,[2],— (represents zero events)
same,Urinary tract infection,[2],— (represents zero events)
same,Vomiting,[2],2 (3) number of patients (percent)
same,Abdominal discomfort,[3],— (represents zero events)
same,Abdominal distension,[3],— (represents zero events)
same,Abdominal pain,[3],2 (3) number of patients (percent)
same,Abnormal dreams,[3],— (represents zero events)
same,Akathisia,[3],— (represents zero events)
same,Alopecia,[3],— (represents zero events)
same,Anemia,[3],— (represents zero events)
same,Any TEAE,[3],15 (25) number of patients (percent)
same,Arthralgia,[3],— (represents zero events)
same,Arthropod bite,[3],— (represents zero events)
same,Back pain,[3],1 (2) number of patients (percent)
same,Conjunctival hemorrhage,[3],— (represents zero events)
same,Contusion,[3],— (represents zero events)
same,Costochondritis,[3],— (represents zero events)
same,Cough,[3],— (represents zero events)
same,Decreased appetite,[3],— (represents zero events)
same,Defecation urgency,[3],1 (2) number of patients (percent)
same,Diarrhea,[3],3 (5) number of patients (percent)
same,Dizziness,[3],— (represents zero events)
same,Dyspepsia,[3],— (represents zero events)
same,Dyspnea,[3],— (represents zero events)
same,Dyspnea exertional,[3],— (represents zero events)
same,Edema,[3],— (represents zero events)
same,Epigastric discomfort,[3],1 (2) number of patients (percent)
same,Epistaxis,[3],— (represents zero events)
same,Erysipelas,[3],1 number of patients (percent) and 1 (2) number of patients (percent)
same,Fatigue,[3],1 (2) number of patients (percent)
same,Frequent bowel movements,[3],1 (2) number of patients (percent)
same,Headache,[3],— (represents zero events)
same,Heavy menstrual bleeding,[3],— (represents zero events)
same,Hypoesthesia,[3],1 (2) number of patients (percent)
same,Hypophosphatemia,[3],— (represents zero events)
same,I lot flush,[3],1 (2) number of patients (percent)
same,Ilypokalemia,[3],— (represents zero events)
same,Increased white blood cell count,[3],1 (2) number of patients (percent)
same,Maculo-papular rash,[3],— (represents zero events)
same,Malaise,[3],— (represents zero events)
same,Micturition urgency,[3],— (represents zero events)
same,Muscle spasms,[3],— (represents zero events)
same,Myalgia,[3],— (represents zero events)
same,Nasal congestion,[3],— (represents zero events)
same,Nasopharyngitis,[3],— (represents zero events)
same,Nausea,[3],2 (3) number of patients (percent)
same,Peripheral swelling,[3],— (represents zero events)
same,Petechiae,[3],— (represents zero events)
same,Pruritus,[3],1 (2) number of patients (percent)
same,Purpura,[3],— (represents zero events)
same,Rash,[3],— (represents zero events)
same,Thrombocytopena,[3],— (represents zero events)
same,Upper abdominal pain,[3],1 (2) number of patients (percent)
same,Upper respiratory tract infection,[3],— (represents zero events)
same,Urinary tract infection,[3],— (represents zero events)
same,Vomiting,[3],1 (2) number of patients (percent)
same,Abdominal discomfort,[4],— (represents zero events)
same,Abdominal distension,[4],— (represents zero events)
same,Abdominal pain,[4],— (represents zero events)
same,Abnormal dreams,[4],— (represents zero events)
same,Akathisia,[4],— (represents zero events)
same,Alopecia,[4],— (represents zero events)
same,Anemia,[4],— (represents zero events)
same,Arthralgia,[4],— (represents zero events)
same,Arthropod bite,[4],— (represents zero events)
same,Back pain,[4],— (represents zero events)
same,Conjunctival hemorrhage,[4],— (represents zero events)
same,Contusion,[4],— (represents zero events)
same,Costochondritis,[4],— (represents zero events)
same,Cough,[4],— (represents zero events)
same,Decreased appetite,[4],— (represents zero events)
same,Defecation urgency,[4],— (represents zero events)
same,Diarrhea,[4],— (represents zero events)
same,Dizziness,[4],— (represents zero events)
same,Dyspepsia,[4],— (represents zero events)
same,Dyspnea,[4],— (represents zero events)
same,Dyspnea exertional,[4],— (represents zero events)
same,Edema,[4],— (represents zero events)
same,Epigastric discomfort,[4],— (represents zero events)
same,Epistaxis,[4],— (represents zero events)
same,Erysipelas,[4],— (represents zero events)
same,Fatigue,[4],— (represents zero events)
same,Frequent bowel movements,[4],— (represents zero events)
same,Headache,[4],— (represents zero events)
same,Heavy menstrual bleeding,[4],— (represents zero events)
same,Hypoesthesia,[4],— (represents zero events)
same,Hypophosphatemia,[4],— (represents zero events)
same,I lot flush,[4],— (represents zero events)
same,Ilypokalemia,[4],— (represents zero events)
same,Increased white blood cell count,[4],— (represents zero events)
same,Maculo-papular rash,[4],— (represents zero events)
same,Malaise,[4],— (represents zero events)
same,Micturition urgency,[4],— (represents zero events)
same,Muscle spasms,[4],— (represents zero events)
same,Myalgia,[4],— (represents zero events)
same,Nasal congestion,[4],— (represents zero events)
same,Nasopharyngitis,[4],— (represents zero events)
same,Nausea,[4],— (represents zero events)
same,Peripheral swelling,[4],— (represents zero events)
same,Petechiae,[4],— (represents zero events)
same,Pruritus,[4],— (represents zero events)
same,Purpura,[4],— (represents zero events)
same,Rash,[4],— (represents zero events)
same,Thrombocytopena,[4],— (represents zero events)
same,Upper abdominal pain,[4],— (represents zero events)
same,Upper respiratory tract infection,[4],— (represents zero events)
same,Urinary tract infection,[4],— (represents zero events)
same,Vomiting,[4],— (represents zero events)
same,grade 1 candida infection,unrelated to treatment,"‡Other infections and infestations not listed in the table that were unrelated to treatment and that occurred in a single patient each included grade 1 candida infection, fungal skin infection, and osteomyelitis; and grade 2 infected skin ulcer and oral herpes."
same,patient deaths,"unrelated to treatment, 400 mg bid discontinued day 8, died 135 days after initiating",1 patient

# Reference: US20260364079A1 (Principia Biopharma Inc., priority 2022, published 2026)
